From patent publication US8119630B2 (Arrow Therapeutics Limited, priority 2002, dated 2012) come the findings set out here.

Each structure is given as a SMILES string. pIC50: −log10 of the molar value. Like-named read-outs stand apart in the source and are kept apart here. Some results are limits rather than exact numbers.

One data set has as its system RSV. Briefly: XTT assay, RSV-infected Vero cells. The data set is classed as cell-based, Respiratory Syncytial Virus (RSV). The note with it: Vero cells infected with RSV, m.o.i.≈0.2, 6 days at 33° C.; for IC50: human respiratory syncytial virus, Vero, 144 h, read-out: XTT IC50 (uM), Table 2, Examples 83 to 124. Summed up:
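Vero cells infected with RSV at m.o.i.≈0.2 in presence of serially ½-log diluted compound, incubated 6 days at 33 °C. Viability read by XTT/PMS (5 h, 37 °C) at OD450; uninfected untreated cells = 100%, infected controls = 0% inhibition. IC50 from graph or regression; parallel uninfected plates for toxicity.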

In the next data set the test system is Vero cells. Briefly: Simultaneous toxicity investigation (XTT), Vero cells. The class given is cell-based. The note with it: for TC50 (2d): Table 2, Examples 83 to 124, 2d; for TC50 (6d): Table 2, Examples 83 to 124, 6d. The arrangement: unit not given here. The method, then:
The inner 60 wells of 96 well tissue culture plates were seeded with Vero cells at 3×10^4 cells/well (1×10^4 cells/well for toxicity studies) in 100 or 150 μl of medium and incubated at 37° C. overnight or until nearing confluency. For primary screen, 25 μl compounds were added directly to 100 μl medium in single wells to duplicate plates. A third plate was prepared for simultaneous toxicity investigation.
For follow-up investigation, 70 μl of compound in duplicate wells were added directly to culture medium at 3.2× final concentration and ½ log serially diluted down columns of plate. A duplicate plate was prepared for simultaneous toxicity investigation.
Cells were infected with 25 μl RSV to give m.o.i.≈0.2. […] Some 0.25 μl/ml PMS were added to stock XTT solution, final conc. […]. Then 25 μl warmed XTT/PMS solution were added to each well and incubated for 5 hours at 37° C. Plates were shaken (DynaTech Vari-Shaker) vigorously for 10 mins and allowed to cool for 15 mins before sealing. Absorbance at 450 nm was measured and data analysed using Microsoft Excel software.
A general note: Formazan colour is commonly taken as a measure of viable cells.

As for `COc1cccc(C(=O)NC2N=C(c3ccccc3)c3ccccc3NC2=O)c1[N+](=O)[O-]` (stereo not drawn) [Example 90, 3-Methoxy-2-nitro-N-(2-oxo-5-phenyl-2,3-dihydro-1H-benzo[e][1,4]diazepin-3-yl)-benzamide], the IC50 (usually the concentration that inhibits the measured activity by half) in the data set on RSV was 0.5 µM. For the same molecule, in the data set on Vero cells, the “TC50 (2d)” value is 100 and the “TC50 (6d)” value was 100.
Turning to `COc1ccc(Cl)cc1C(=O)NC1N=C(c2ccccc2)c2ccccc2NC1=O` (stereo not drawn) [Example 91, 5-chloro-2-methoxy-N-(2-oxo-5-phenyl-2,3-dihydro-1H-benzo[e][1,4]diazepin-3-yl)benzamide], in the data set with RSV, the IC50 worked out at 0.3 µM. For the same molecule, in the data set with Vero cells, the “TC50 (2d)” value is on record as 100 and the “TC50 (6d)” value came to 100.
Consider `COc1ccc(F)cc1C(=O)NC1N=C(c2ccccc2)c2ccccc2NC1=O` (stereo not drawn) [Example 92, 5-Fluoro-2-methoxy-N-(2-oxo-5-phenyl-2,3-dihydro-1H-benzo[e][1,4]diazepin-3-yl)-benzamide], for which the IC50 in the data set on RSV is less than 0.3 µM. Besides, in the data set on Vero cells, the “TC50 (2d)” value came to 100 and the “TC50 (6d)” value is recorded as 100.
With `COc1cc([N+](=O)[O-])ccc1C(=O)NC1N=C(c2ccccc2)c2ccccc2NC1=O` (stereo not drawn) [Example 93, 2-Methoxy-4-nitro-N-(2-oxo-5-phenyl-2,3-dihydro-1H-benzo[e][1,4]diazepin-3-yl)-benzamide], the IC50 in the data set on RSV is less than 0.3 µM. Moreover, in the data set on Vero cells, the “TC50 (2d)” value is given as 100 and the “TC50 (6d)” value was greater than 100.
For `COc1ccc([N+](=O)[O-])c(C(=O)NC2N=C(c3ccccc3)c3ccccc3NC2=O)c1` (stereo not drawn) [Example 94, 5-Methoxy-2-nitro-N-(2-oxo-5-phenyl-2,3-dihydro-1H-benzo[e][1,4]diazepin-3-yl)-benzamide] the same measures were 1.5 µM, greater than 100 and greater than 100.
As to `COc1cc(C(=O)NC2N=C(c3ccccc3)c3ccccc3NC2=O)ccc1[N+](=O)[O-]` (stereo not drawn) [Example 95, 3-Methoxy-4-nitro-N-(2-oxo-5-phenyl-2,3-dihydro-1H-benzo[e][1,4]diazepin-3-yl)-benzamide], the IC50 with RSV turned out to be 1.5 µM. Also, in the data set on Vero cells, the “TC50 (2d)” value is on record as 100 and the “TC50 (6d)” value was greater than 100.
`COc1ccccc1CCC(=O)NC1N=C(c2ccccc2)c2ccccc2NC1=O` (stereo not drawn) [Example 96, 3-(2-Methoxy-phenyl)-N-(2-oxo-5-phenyl-2,3-dihydro-1H-benzo[e][1,4]diazepin-3-yl)propionamide]: the IC50 with RSV was determined as 5 µM. Moreover, in the data set with Vero cells, the “TC50 (2d)” value is greater than 100 and the “TC50 (6d)” value is greater than 100.
Consider `COc1cccc(CCC(=O)NC2N=C(c3ccccc3)c3ccccc3NC2=O)c1` (stereo not drawn) [Example 97, 3-(3-Methoxy-phenyl)-N-(2-oxo-5-phenyl-2,3-dihydro-1H-benzo[e][1,4]diazepin-3-yl)-propionamide], for which the IC50 in the data set on RSV came to 5 µM. Moreover, in the data set with Vero cells, the “TC50 (2d)” value was greater than 100 and the “TC50 (6d)” value is reported as greater than 100.
As to `COc1ccc(CCC(=O)NC2N=C(c3ccccc3)c3ccccc3NC2=O)cc1` (stereo not drawn) [Example 98, 3-(4-Methoxy-phenyl)-N-(2-oxo-5-phenyl-2,3-dihydro-1H-benzo[e][1,4]diazepin-3-yl)-propionamide], in the data set on RSV, the IC50 is 5 µM. Further, in the data set on Vero cells, the “TC50 (2d)” value is greater than 100 and the “TC50 (6d)” value is reported as greater than 100.
Regarding `COc1ccccc1C(=O)NC1N=C(c2cccc(Cl)c2)c2ccccc2NC1=O` (stereo not drawn) [Example 99, N-[5-(3-Chloro-phenyl)-2-oxo-2,3-dihydro-1H-benzo[e][1,4]diazepin-3-yl]-2-methoxy-benzamide], the IC50 with RSV amounted to 1 µM. In the data set with Vero cells, the “TC50 (2d)” value is 100 and the “TC50 (6d)” value is reported as greater than 100.
Take `COc1ccc(C(=O)NC2N=C(c3ccc(C(F)(F)F)cc3)c3ccccc3NC2=O)cc1` (stereo not drawn) [Example 103, 4-Methoxy-N-[2-oxo-5-(4-trifluoromethyl-phenyl)-2,3-dihydro-1H-benzo[e][1,4]diazepin-3-yl]-benzamide]: the IC50 with RSV came to 7 µM. Also, in the data set with Vero cells, the “TC50 (2d)” value is greater than 100 and the “TC50 (6d)” value came to 30.
Take `COc1ccccc1C(=O)NC1N=C(c2cccc(C(F)(F)F)c2)c2ccccc2NC1=O` (stereo not drawn) [Example 104, 2-Methoxy-N-[2-oxo-5-(3-trifluoromethyl-phenyl)-2,3-dihydro-1H-benzo[e][1,4]diazepin-3-yl]-benzamide]: the IC50 with RSV was 5 µM. In addition, in the data set on Vero cells, the “TC50 (2d)” value was greater than 100 and the “TC50 (6d)” value was greater than 100.
`COc1ccc(C(=O)NC2N=C(c3cccc(C(F)(F)F)c3)c3ccccc3NC2=O)cc1` (stereo not drawn) [Example 105]: the pIC50 (as a rule, −log10 of the IC50, conventionally taken in molar units) with RSV (Table 2, Examples 83 to 124, read-out: XTT IC50) was 5.05. Further, in the data set on Vero cells, the “TC50 (2d)” value is greater than 100 and the “TC50 (6d)” value is greater than 100.
As for `CCOc1ccccc1C(=O)NC1N=C(c2ccccc2)c2ccccc2NC1=O` (stereo not drawn) [Example 106, 2-Ethoxy-N-(2-oxo-5-phenyl-2,3-dihydro-1H-benzo[e][1,4]diazepin-3-yl)-benzamide], in the data set with RSV, the IC50 is 0.7 µM. Further, in the data set with Vero cells, the “TC50 (2d)” value is given as greater than 100 and the “TC50 (6d)” value is recorded as greater than 100.
In the case of `COc1ccc(C(=O)NC2N=C(c3ccccc3)c3ccccc3NC2=O)c(OC)c1` (stereo not drawn) [Example 107, 2,4-Dimethoxy-N-(2-oxo-5-phenyl-2,3-dihydro-1H-benzo[e][1,4]diazepin-3-yl)-benzamide], the IC50 with RSV was less than 0.3 µM. Moreover, in the data set on Vero cells, the “TC50 (2d)” value was determined as 60 and the “TC50 (6d)” value turned out to be 60.
Turning to `COc1ccc(Br)c(C(=O)NC2N=C(c3ccccc3)c3ccccc3NC2=O)c1` (stereo not drawn) [Example 108, 2-Bromo-5-methoxy-N-(2-oxo-5-phenyl-2,3-dihydro-1H-benzo[e][1,4]diazepin-3-yl)-benzamide], the IC50 with RSV is 2 µM. Moreover, in the data set with Vero cells, the “TC50 (2d)” value was greater than 100 and the “TC50 (6d)” value is greater than 100.
Regarding `COc1cccc(C2=NC(NC(=O)c3ccccc3OC)C(=O)Nc3ccccc32)c1` (stereo not drawn) [Example 109, 2-Methoxy-N-[5-(3-methoxy-phenyl)-2-oxo-2,3-dihydro-1H-benzo[e][1,4]diazepin-3-yl]-benzamide], the IC50 in the data set on RSV was found to be 2 µM. In the data set on Vero cells, the “TC50 (2d)” value was 50 and the “TC50 (6d)” value was determined as 100.
Regarding `COc1ccccc1C(=O)NC1N=C(c2ccccc2)c2ccc(C)cc2NC1=O` (stereo not drawn) [Example 111, 2-Methoxy-N-(8-methyl-2-oxo-5-phenyl-2,3-dihydro-1H-benzo[e][1,4]diazepin-3-yl)-benzamide], the IC50 in the data set with RSV is 3 µM. Moreover, in the data set with Vero cells, the “TC50 (2d)” value is recorded as greater than 100 and the “TC50 (6d)” value is greater than 100.
As for `CS(=O)(=O)c1ccc(C(=O)NC2N=C(c3ccccc3)c3ccccc3NC2=O)c(Cl)c1` (stereo not drawn) [Example 112, 2-Chloro-4-methanesulfonyl-N-(2-oxo-5-phenyl-2,3-dihydro-1H-benzo[e][1,4]diazepin-3-yl)-benzamide], the IC50 in the data set with RSV was found to be 1.5 µM. In addition, in the data set on Vero cells, the “TC50 (2d)” value was greater than 100 and the “TC50 (6d)” value was greater than 100.
Turning to `CN(C)c1ccccc1C(=O)NC1N=C(c2ccccc2)c2ccccc2NC1=O` (stereo not drawn) [Example 113, 2-Dimethylamino-N-(2-oxo-5-phenyl-2,3-dihydro-1H-benzo[e][1,4]diazepin-3-yl)-benzamide], in the data set on RSV, the IC50 was determined as 1.5 µM. Further, in the data set with Vero cells, the “TC50 (2d)” value is on record as greater than 100 and the “TC50 (6d)” value is given as greater than 100.
With `O=C(NC1N=C(c2ccccc2)c2ccccc2NC1=O)OCc1ccccc1` (stereo not drawn) [Example 114, (2-Oxo-5-phenyl-2,3-dihydro-1H-benzo[e][1,4]diazepin-3-yl)-carbamic acid benzyl ester], the IC50 in the data set on RSV amounted to 5 µM. In the data set on Vero cells, the “TC50 (2d)” value is recorded as greater than 100 and the “TC50 (6d)” value is 60.
For `Cc1cc(C)cc(NC(=O)NC2N=C(c3ccccc3)c3ccccc3NC2=O)c1` (stereo not drawn) [Example 115, 1-(3,5-Dimethyl-phenyl)-3-(2-oxo-5-phenyl-2,3-dihydro-1H-benzo[e][1,4]diazepin-3-yl)-urea], in the data set on RSV, the IC50 stood at 1.5 µM. In the data set with Vero cells, the “TC50 (2d)” value is reported as greater than 100 and the “TC50 (6d)” value is 60.
Turning to `O=C(Nc1ccc(OC(F)(F)F)cc1)NC1N=C(c2ccccc2)c2ccccc2NC1=O` (stereo not drawn) [Example 116, 1-(2-Oxo-5-phenyl-2,3-dihydro-1H-benzo[e][1,4]diazepin-3-yl)-3-(4-trifluoromethoxy-phenyl)-urea], the IC50 in the data set with RSV is 2 µM. Also, in the data set on Vero cells, the “TC50 (2d)” value is recorded as 20 and the “TC50 (6d)” value came out at 20.
`O=C(Nc1ccc(Br)cc1C(F)(F)F)NC1N=C(c2ccccc2)c2ccccc2NC1=O` (stereo not drawn) [Example 117, 1-(4-Bromo-2-trifluoromethyl-phenyl)-3-(2-oxo-5-phenyl-2,3-dihydro-1H-benzo[e][1,4]diazepin-3-yl)-urea]: the IC50 in the data set on RSV worked out at 6 µM. Moreover, in the data set with Vero cells, the “TC50 (2d)” value came out at 60 and the “TC50 (6d)” value turned out to be 100.
For `O=C(NCc1ccc(Br)cc1)NC1N=C(c2ccccc2)c2ccccc2NC1=O` (stereo not drawn) [Example 118, 1-(4-Bromo-benzyl)-3-(2-oxo-5-phenyl-2,3-dihydro-1H-benzo[e][1,4]diazepin-3-yl)-urea], in that order: 2 µM, greater than 100 and 100.
